Usually IC50 stands for the concentration that gives 50% inhibition.

Assay [1] addresses T1, Akt1 (Homo sapiens, UniProt P31749).
T1 construct: unspecified tag, removed (detagged) (cleaved yes); purchased SignalChem and Proteros (Akt1); Merck Millipore (PDK1) 14-452 (PDK1); none given for Akt1
Nature of the assay: Akt activation assay (PDK1-mediated activation, LANCE Ultra crosstide TR-FRET), Akt1. Type of assay: biochemical. To be noted: read-out: Biological Assay 1 IC50 (nM) Akt1. The method, boiled down:
(§1)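 Two-step cascade format: Akt1, Akt2 or Akt3 phosphorylates Ulight-crosstide (100 nM) only after activation by 5 nM PDK1 in presence of PtdIns(3,4,5)P3 vesicles and 100 μM ATP. Product quantified by Eu-antibody TR-FRET after 30 min reaction.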
On the technique in general: In TR-FRET formats the signal depends on donor and acceptor labels being close together.

The target of assay [2] is T2, Akt2 (Homo sapiens, UniProt P31751).
T2 construct: unspecified tag, removed (detagged) (cleaved yes); purchased SignalChem and Proteros (Akt2); Merck Millipore (PDK1) 14-452 (PDK1); none given for Akt2
Nature of the assay: Akt activation assay (PDK1-mediated activation, LANCE Ultra crosstide TR-FRET), Akt2. Type of assay: biochemical. To be noted: read-out: Biological Assay 1 IC50 (nM) Akt2. The method, boiled down:
as §1

Assay [3] addresses T3, Akt3 (Homo sapiens, UniProt Q9Y243).
T3 construct: unspecified tag, removed (detagged) (cleaved yes); purchased SignalChem and Proteros (Akt3); Merck Millipore (PDK1) 14-452 (PDK1); none given for Akt3
Put plainly: Akt activation assay (PDK1-mediated activation, LANCE Ultra crosstide TR-FRET), Akt3. The assay is classed as biochemical. The following applies: read-out: Biological Assay 1 IC50 (nM) Akt3. The method, boiled down: as §1

Assay [4] deals with T4, p-Akt1 in LNCaP cells (Homo sapiens, UniProt P31749).
T4 construct: SureFire assays to detect cellular p-Akt1, p-Akt2 and p-Akt3 levels in WM115 cells (Akt2/3) and LNCaP cells (Akt1); endogenous in cells; host or cells: LNCaP (ECACC 89110211)
Put plainly: Phospho-Akt cellular SureFire assay, p-Akt1 in LNCaP cells. The assay is classed as cell-based. To be noted: read-out: Biological Assay 2 IC50 (nM) Akt1 LNCaP. The method, boiled down:
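Phospho-Thr308 Akt1 detected by AlphaScreen SureFire proximity beads in LNCaP lysates after 15 min compound treatment at 37 °C in 0.1% FBS medium, unstimulated, 0.3% DMSO. Cells plated at 5×10^4/well overnight; IC50 from a 4-parameter equation.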

Assay [5] addresses T5, p-Akt2 in WM115 cells (Homo sapiens, UniProt P31751).
T5 construct: SureFire assays to detect cellular p-Akt1, p-Akt2 and p-Akt3 levels in WM115 cells (Akt2/3) and LNCaP cells (Akt1); endogenous in cells; host or cells: WM115 (ECACC 91061232), insulin-stimulated
Nature of the assay: Phospho-Akt cellular SureFire assay, p-Akt2 in WM115 cells. Type of assay: cell-based. To be noted: insulin stimulated, read-out: Biological Assay 2 IC50 (nM) Akt2 WM115. The method, boiled down:
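Readout is a bead-proximity SureFire assay pairing a pThr308 Akt antibody with a total Akt2 antibody, lysate and beads incubated 2 h plus 2 h at room temperature in the dark. Before lysis, serum-starved WM115 cells received 100 nM insulin (10 min), then test compound (15 min, 0.3% DMSO); IC50 by 4-parameter equation.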

In assay [6] the target is T6, p-Akt3 in WM115 cells (Homo sapiens, UniProt Q9Y243).
T6 construct: SureFire assays to detect cellular p-Akt1, p-Akt2 and p-Akt3 levels in WM115 cells (Akt2/3) and LNCaP cells (Akt1); endogenous in cells; host or cells: WM115 (ECACC 91061232), insulin-stimulated
Put plainly: Phospho-Akt cellular SureFire assay, p-Akt3 in WM115 cells. Type of assay: cell-based. The following applies: insulin stimulated, read-out: Biological Assay 2 IC50 (nM) Akt3 WM115. The method, boiled down: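 pThr308-Akt3 in lysates was quantified by bead-proximity SureFire detection, pairing a phospho-specific antibody with a total Akt3 antibody. Before lysis, WM115 cells in 0.1% FBS medium were treated for 15 min at 37 °C with compound (final DMSO 0.3%), following a 10 min stimulation with 100 nM insulin. IC50 was obtained by 4-parameter fitting.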

T6 sequence (Q9Y243 whole entry): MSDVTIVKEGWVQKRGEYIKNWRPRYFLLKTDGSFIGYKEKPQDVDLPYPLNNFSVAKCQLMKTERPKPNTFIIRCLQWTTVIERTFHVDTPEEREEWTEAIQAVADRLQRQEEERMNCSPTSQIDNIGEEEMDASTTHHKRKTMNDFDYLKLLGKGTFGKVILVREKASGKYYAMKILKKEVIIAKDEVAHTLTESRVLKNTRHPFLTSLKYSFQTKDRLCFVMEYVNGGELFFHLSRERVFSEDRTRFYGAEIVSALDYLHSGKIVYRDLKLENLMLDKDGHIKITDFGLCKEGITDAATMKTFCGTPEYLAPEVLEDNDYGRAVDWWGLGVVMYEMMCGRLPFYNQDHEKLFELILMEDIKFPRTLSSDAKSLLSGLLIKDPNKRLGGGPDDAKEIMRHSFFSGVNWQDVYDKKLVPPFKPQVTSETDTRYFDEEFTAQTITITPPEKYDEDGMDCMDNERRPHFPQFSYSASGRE
T3 sequence (Q9Y243 whole entry): as above
T2 sequence (P31751 whole entry): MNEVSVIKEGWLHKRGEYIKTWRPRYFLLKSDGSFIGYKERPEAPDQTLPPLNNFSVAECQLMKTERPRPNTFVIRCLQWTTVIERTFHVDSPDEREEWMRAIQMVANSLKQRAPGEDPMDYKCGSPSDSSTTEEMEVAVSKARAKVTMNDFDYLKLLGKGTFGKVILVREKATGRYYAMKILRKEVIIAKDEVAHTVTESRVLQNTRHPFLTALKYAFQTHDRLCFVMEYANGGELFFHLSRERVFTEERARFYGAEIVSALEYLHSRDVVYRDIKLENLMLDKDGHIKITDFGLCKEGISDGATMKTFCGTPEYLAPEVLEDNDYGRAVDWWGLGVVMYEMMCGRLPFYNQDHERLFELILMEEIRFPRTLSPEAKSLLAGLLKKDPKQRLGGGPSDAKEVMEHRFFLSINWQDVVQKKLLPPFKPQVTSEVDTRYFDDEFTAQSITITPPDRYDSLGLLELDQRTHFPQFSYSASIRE
T5 sequence (P31751 whole entry): as above
T4 sequence (P31749 whole entry): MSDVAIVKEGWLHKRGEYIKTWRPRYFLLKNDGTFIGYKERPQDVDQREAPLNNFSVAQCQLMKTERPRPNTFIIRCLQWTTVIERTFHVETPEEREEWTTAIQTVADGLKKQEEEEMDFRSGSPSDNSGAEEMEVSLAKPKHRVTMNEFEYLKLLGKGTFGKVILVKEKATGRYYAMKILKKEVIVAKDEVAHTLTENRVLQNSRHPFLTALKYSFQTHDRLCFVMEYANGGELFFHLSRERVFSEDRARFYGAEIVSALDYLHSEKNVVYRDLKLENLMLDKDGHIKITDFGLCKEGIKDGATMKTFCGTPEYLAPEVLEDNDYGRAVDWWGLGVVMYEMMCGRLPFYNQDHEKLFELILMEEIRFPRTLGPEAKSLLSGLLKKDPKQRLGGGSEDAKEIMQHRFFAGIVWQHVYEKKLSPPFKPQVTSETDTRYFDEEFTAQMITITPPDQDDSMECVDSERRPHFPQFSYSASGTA
T1 sequence (P31749 whole entry): as above

With `CCC(=O)N(C)[C@H]1CC[C@H](CC(=O)Nc2cnc(-c3ccc([C@]4(N)C[C@](C)(O)C4)cc3)c(-c3ccccc3)c2)CC1` [Example 98, N-(4-(2-((6-(4-(trans-1-amino-3-hydroxy-3-methylcyclobutyl)phenyl)-5-phenylpyridin-3-yl)amino)-2-oxoethyl)cyclohexyl)-N-methylpropionamide], the half-inhibitory concentration (IC50) in assay [1] came out at 3500 nM; in assay [2], 53 nM; in assay [3], 5 nM; in assay [4] it was 880 nM; in assay [5], 470 nM; in assay [6], 7 nM.

As for `CC(C)C(=O)N(C)[C@H]1CC[C@H](CC(=O)Nc2cnc(-c3ccc([C@]4(N)C[C@](C)(O)C4)cc3)c(-c3ccccc3)c2)CC1` [Example 99, N-(4-(2-((6-(4-(trans-1-amino-3-hydroxy-3-methylcyclobutyl)phenyl)-5-phenylpyridin-3-yl)amino)-2-oxoethyl)cyclohexyl)-N-methylisobutyramide], the IC50 is 2400 nM in assay [1]; 44 nM in assay [2]; 6 nM in assay [3]; 670 nM in assay [4]; 390 nM in assay [5]; 12 nM in assay [6].

Consider `CC(=O)N(C(C)C)[C@H]1CC[C@H](CC(=O)Nc2cc(-c3ccccc3)c(-c3ccc([C@]4(N)C[C@](C)(O)C4)cc3)nn2)CC1` [Example 100, N-(6-(4-(trans-1-amino-3-hydroxy-3-methylcyclobutyl)phenyl)-5-phenylpyridazin-3-yl)-2-(trans-4-(N-isopropylacetamido)cyclohexyl)acetamide], for which the concentration for half-maximal inhibition (IC50) in assay [1] turned out to be 2400 nM; in assay [2], 170 nM; in assay [3], 8 nM; in assay [4], 790 nM; in assay [5] it was 1000 nM; in assay [6] it was 26 nM.

`COC(=O)N(C(C)C)[C@H]1CC[C@H](CC(=O)Nc2cc(-c3ccccc3)c(-c3ccc([C@]4(N)C[C@](C)(O)C4)cc3)nn2)CC1` [Example 101, Methyl (trans-4-(2-((6-(4-(trans-1-amino-3-hydroxy-3-methylcyclobutyl)phenyl)-5-phenylpyridazin-3-yl)amino)-2-oxoethyl)cyclohexyl)(isopropyl)carbamate]: the IC50 in assay [1] stood at 8900 nM; in assay [2] it was 120 nM; in assay [3], 7 nM; in assay [4] it was 5900 nM; in assay [5], 2600 nM; in assay [6], 48 nM.

In the case of `CC(=O)N(C(C)C)[C@H]1CC[C@H](CC(=O)Nc2cc(-c3ccccc3)c(-c3ccc([C@]4(N)C[C@](C)(O)C4)cc3)cn2)CC1` [Example 102, N-(5-(4-(trans-1-amino-3-hydroxy-3-methylcyclobutyl)phenyl)-4-phenylpyridin-2-yl)-2-(trans-4-(N-isopropylacetamido)cyclohexyl)acetamide], the IC50 in assay [1] is 4100 nM; in assay [2], 140 nM; in assay [3], 16 nM; in assay [4], 1800 nM; in assay [5] it was 1700 nM; in assay [6] it was 57 nM.

Take `CCC(=O)N(C(C)C)[C@H]1CC[C@H](CC(=O)Nc2cc(-c3ccccc3)c(-c3ccc([C@]4(N)C[C@](C)(O)C4)cc3)nn2)CC1` [Example 104, N-(trans-4-(2-((6-(4-(trans-1-amino-3-hydroxy-3-methylcyclobutyl)phenyl)-5-phenylpyridazin-3-yl)amino)-2-oxoethyl)cyclohexyl)-N-isopropylpropionamide]: the half-inhibitory concentration (IC50) in assay [1] was found to be 3200 nM; in assay [2], 120 nM; in assay [3], 10 nM; in assay [4], 1900 nM; in assay [5], 1300 nM; in assay [6], 27 nM.

Take `CC(C)N(C(=O)C1CC1)[C@H]1CC[C@H](CC(=O)Nc2cc(-c3ccccc3)c(-c3ccc([C@]4(N)C[C@](C)(O)C4)cc3)nn2)CC1` [Example 105, N-(trans-4-(2-((6-(4-(trans-1-amino-3-hydroxy-3-methylcyclobutyl)phenyl)-5-phenylpyridazin-3-yl)amino)-2-oxoethyl)cyclohexyl)-N-isopropylcyclopropanecarboxamide]: the half-maximal inhibitory concentration (IC50) in assay [1] came to 4600 nM; in assay [2], 210 nM; in assay [3], 8 nM; in assay [4], 5300 nM; in assay [5], 1400 nM; in assay [6] it was 26 nM.

Consider `CCN(C(C)=O)[C@H]1CC[C@H](CC(=O)Nc2cc(-c3ccccc3)c(-c3ccc([C@]4(N)C[C@](C)(O)C4)cc3)nn2)CC1` [Example 106, N-(6-(4-(trans-1-amino-3-hydroxy-3-methylcyclobutyl)phenyl)-5-phenylpyridazin-3-yl)-2-(trans-4-(N-ethylacetamido)cyclohexyl)acetamide], for which the IC50 was above 13000 nM in assay [1]; 210 nM in assay [2]; 8 nM in assay [3]; 4000 nM in assay [4]; 1500 nM in assay [5]; 25 nM in assay [6].

As for `COCC(=O)N(C)[C@H]1CC[C@H](CC(=O)Nc2cc(-c3ccccc3)c(-c3ccc([C@]4(N)C[C@](C)(O)C4)cc3)cn2)CC1` [Example 107, N-(trans-4-(2-((5-(4-(trans-1-amino-3-hydroxy-3-methylcyclobutyl)phenyl)-4-phenylpyridin-2-yl)amino)-2-oxoethyl)cyclohexyl)-2-methoxy-N-methylacetamide], the half-inhibitory concentration (IC50) in assay [1] is above 30000 nM; in assay [2], 94 nM; in assay [3], 9 nM; in assay [4], 7300 nM; in assay [5], 390 nM; in assay [6], 9 nM.

For the molecule `CCC(=O)N(CC)[C@H]1CC[C@H](CC(=O)Nc2cc(-c3ccccc3)c(-c3ccc([C@]4(N)C[C@](C)(O)C4)cc3)nn2)CC1` [Example 113, N-(trans-4-(2-((6-(4-(trans-1-amino-3-hydroxy-3-methylcyclobutyl)phen)-5-phenylpyridazin-3-yl)amino)-2-oxoethyl)cyclohexyl)-N-ethylpropionamide], the 50% inhibitory concentration (IC50) in assay [1] is above 14000 nM; in assay [2], 130 nM; in assay [3] it was 8 nM; in assay [4] it was 4100 nM; in assay [5], 510 nM; in assay [6], 7 nM.

In the case of `CCN(C(=O)C1CC1)[C@H]1CC[C@H](CC(=O)Nc2cc(-c3ccccc3)c(-c3ccc([C@]4(N)C[C@](C)(O)C4)cc3)nn2)CC1` [Example 114, N-(trans-4-(2-((6-(4-(trans-1-amino-3-hydroxy-3-methylcyclobutyl)phenyl)-5-phenylpyridazin-3-yl)amino)-2-oxoethyl)cyclohexyl)-N-ethylcyclopropanecarboxamide], the IC50 in assay [1] is above 23000 nM; in assay [2], 110 nM; in assay [3], 7 nM; in assay [4], 3300 nM; in assay [5] it was 440 nM; in assay [6], 5 nM.

For the molecule `CC(=O)N(CC(F)(F)F)[C@H]1CC[C@H](CC(=O)Nc2cc(-c3ccccc3)c(-c3ccc([C@]4(N)C[C@](C)(O)C4)cc3)cn2)CC1` [Example 117, N-(5-(4-(trans-1-amino-3-hydroxy-3-methylcyclobutyl)phenyl)-4-phenylpyridin-2-yl)-2-(trans-4-(N-(2,2,2-trifluoroethyl)acetamido)cyclohexyl)acetamide], the IC50 in assay [1] is above 24000 nM; in assay [2], 290 nM; in assay [3] it was 42 nM; in assay [4], 12000 nM; in assay [5], 980 nM; in assay [6], 33 nM.

Source of the values: patent publication US10336702B2, “Pharmaceutically active compounds” (BERGENBIO ASA, priority 2015, dated 2019).
